The text below walks through data of patent publication US6060487A, “Indanol compounds” (Adir et Compagnie, priority 1997, dated 2000).

SMILES strings stand for the structures.

Assay [1] can be described thus: Ultrasonic vocalisation test in rats. To be noted: for duration of the ultrasonic vocalisations: mean ± s.e.m. The class given is in vivo, Male Wistar rats. From the text:
3. Ultrasonic Vocalisation Test in Rats
When a rat is placed in an environment previously associated with an unpleasant experience (electric shocks to the paws), its anxiety is shown by the emission of inaudible cries (or ultrasonic vocalisations).
Standard cages (Coulbourn Instruments), placed in sound-absorbing ventilated boxes, are fitted with a floor composed of electrifiable metal bars (shock generator and scrambler Med Associates Inc) and with a microphone located in the centre of the ceiling. The ultrasonic noises are converted into an audible range (bat-detector Buitenbedrijf). The signals modified in that manner are filtered and then processed (RTS software, Engineering Design). The spectrograms obtained are recorded on DAT tapes.
Male Wistar rats weighing 180-200 g on their arrival are placed in cages of four with free access to water and food from five days before the start of the study until the end of the study. The procedure employed is divided into three successive stages separated by 24 hours, called training, selection and test. During the training period, the animals are placed individually into cages where they receive six electric shocks (0.8 mA, 8 s) distributed randomly over a period of seven minutes. Selection comprises placing each animal in a cage for two minutes where it receives a single shock and putting it back in the cage thirty minutes later to record the ultrasonic vocalisations for a period of ten minutes; those animals in which the duration of the vocalisations is less than 90 seconds are excluded from the remainder of the experiment. The test phase proceeds in a similar manner to the selection stage, except that the compounds or the carrier are administered at the end of the two-minute period.

Assay [2] has as its target T1, post-synaptic 5-HT1A receptors (Rattus norvegicus, UniProt P19327).
T1 construct: Body Temperature Test in Rats (post-synaptic 5-HT1A receptors); from tissue; host or cells: living rat (whole animal)
T1 sequence (P19327 1-422): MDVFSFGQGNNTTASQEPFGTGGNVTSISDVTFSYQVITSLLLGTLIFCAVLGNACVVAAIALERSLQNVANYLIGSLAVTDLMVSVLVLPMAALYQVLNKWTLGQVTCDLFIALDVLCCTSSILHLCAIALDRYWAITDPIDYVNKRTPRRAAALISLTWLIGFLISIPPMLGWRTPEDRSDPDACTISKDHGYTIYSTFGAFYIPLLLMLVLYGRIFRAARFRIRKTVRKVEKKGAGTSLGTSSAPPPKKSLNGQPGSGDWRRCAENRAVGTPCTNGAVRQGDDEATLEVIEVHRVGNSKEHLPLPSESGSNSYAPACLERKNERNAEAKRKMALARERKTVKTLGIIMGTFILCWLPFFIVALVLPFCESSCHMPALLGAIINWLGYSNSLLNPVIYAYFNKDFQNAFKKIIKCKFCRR
Description: Body temperature test in rats. The class given is in vivo. From the text: 2. Body Temperature Test in Rats (post-synaptic 5-HT1A receptors)
That effect is reversed by 5-HT1A antagonists,as has been shown by M. J. Millan (J. Pharmacol. Exp. Ther., 1993, 264, 1346-1376). According to the protocol described by that author, compounds of the invention which when administered on their own bring about a decrease in body temperature will be identified as post-synaptic 5-HT1A serotoninergic agonists. On the other hand, compounds of the invention that reverse the hypothermia induced by the prototypical 5-HT1A agonist 8-OH-DPAT will be identified as post-synaptic 5-HT1A antagonists.

Assay [3] addresses α1 receptors. Description: Affinity for α1 receptors of rats, competition with [^3 H]-prazosin. To be noted: frontal cortex of rat, 25° C. The class given is binding. On the procedure: The radioactivity retained on the filters is determined by liquid scintillation counting. The binding isotherms are analysed by non-linear regression using `PRISM` software (GraphPad Software Inc., S. Diego, USA) to determine IC50 values.

Assay [4] concerns the target T2, human 5-HT1A receptor (Homo sapiens, UniProt P08908).
T2 construct: expressed in transfected cells; host or cells: CHO cells (membranes)
T2 sequence (P08908 1-422): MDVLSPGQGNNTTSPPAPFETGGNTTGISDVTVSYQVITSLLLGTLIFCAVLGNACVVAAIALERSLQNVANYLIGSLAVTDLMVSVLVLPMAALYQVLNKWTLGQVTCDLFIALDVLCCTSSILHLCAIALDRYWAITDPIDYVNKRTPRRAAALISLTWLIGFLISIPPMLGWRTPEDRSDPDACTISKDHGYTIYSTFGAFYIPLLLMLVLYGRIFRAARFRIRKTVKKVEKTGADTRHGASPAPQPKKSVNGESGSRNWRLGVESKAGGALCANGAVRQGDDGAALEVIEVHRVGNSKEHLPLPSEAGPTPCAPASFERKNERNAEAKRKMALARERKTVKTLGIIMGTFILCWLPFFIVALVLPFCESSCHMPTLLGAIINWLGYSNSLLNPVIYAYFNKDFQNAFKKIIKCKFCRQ
Description: Affinity for human h5-HT1A receptors, competition with [^3 H]-8-OH-DPAT. Type of assay: binding. Here is the method: The radioactivity retained on the filters is determined by liquid scintillation counting.

Assay [5] deals with T3, pre-synaptic 5-HT1A receptors (Rattus norvegicus, UniProt P19327).
T3 construct: in the Dorsal Nucleus of the Raphe in Rats (pre-synaptic 5-HT1A receptors); from tissue; host or cells: living anaesthetised rat, serotoninergic neurons of the dorsal nucleus of the raphe
T3 sequence (P19327 1-422): T1 sequence (P19327 1-422)
As to the kind of experiment: In vivo recording of unitary extracellular electrical activity in the dorsal nucleus of the raphe in rats. Here is the method: 1. "In Vivo" Recording of Unitary Extracellular Electrical Activity in the Dorsal Nucleus of the Raphe in Rats (pre-synaptic 5-HT1A receptors)
The administration of a 5-HT1A serotoninergic agonist decreases the discharge frequency of neurons in a dose-dependant manner. That effect is reversed by the selective 5-HT1A antagonist, WAY 100,635.
The rats are anaesthetised with chloral hydrate (400 mg/kg, i.p.) and placed in a stereotaxis apparatus (Unimecanique, France) after catheterisation of the femoral vein. The level of anaesthesia is maintained by i.p. administration of chloral hydrate every hour; the rectal temperature is maintained at 37±1° C. by means of a thermostatically controlled heated cover. A tungsten microelectrode (10 M.OMEGA., 1 μM) is inserted using an electronic microinsertion device (Unimecanique, France) into the dorsal nucleus of the raphe (AP: -7.8/bregma; L: 0.0; H: 5.0-6.5/dura; Paxinos and Watson Atlas, 1986). The potentials of the serotoninergic cells are characterised by their morphology (positive/negative biphase potentials, of a duration of less than 2.5 msec) and their slow and regular discharge rhythm of from 0.5 to 2.5 Hz. A single cell per animal is recorded.
After a period of ≥5 min (basal activity) and a first injection of carrier (distilled water to which a few drops of dilute lactic acid have been added, pH adjusted to 5 with 1N NaOH), the compound of the invention is administered intravenously in cumulatively increasing doses at intervals of 5 minutes.
Acquisition of the data is effected by the software Spike2 (Cambridge Electronic Design, England). The discharge frequency is measured over one minute at the maximum variation between each injection and is expressed as a percentage variation in relation to the basal activity (average of the 5 minutes preceding the first treatment) defined as 100%. The ID50 is calculated using a simple linear regression method with repeated measurements.

The target in assay [6] is T1, post-synaptic 5-HT1A receptors. To be noted: M. J. Millan, 1993; cited from earlier work.

As usually defined, the Ki is a dissociation constant, usually derived from enzyme kinetics or from competition with a known ligand. A lower Ki goes with a stronger hold on the target. As for `O[C@@H]1c2ccccc2C[C@H]1N1CCN(c2cccc3c2OCCO3)CC1` (relative stereo) [Example 6, Trans-2-[4-(2,3-dihydro[1,4]benzodioxin-5-yl)piperazin-1-yl]indan-1-ol], the “duration of the ultrasonic vocalisations” value was 170 ± 62 s in assay [1] (0.04 mg/kg s.c., n = 6); 28 ± 14 s in assay [1] (0.16 mg/kg s.c., n = 3, ** p < 0.01 vs carrier (Dunnett test)); 8 ± 8 s in assay [1] (2.5 mg/kg s.c., n = 5, ** p < 0.01 vs carrier (Dunnett test)). For the same compound, the “effect on duration of the vocalisations (anxiolytic activity)” value in assay [1] (0.16 and 2.5 mg/kg s.c.) is recorded as “brings about a reduction in the duration of the vocalisations, indicating its anxiolytic activity”. For the same compound, in assay [2] (post-synaptic, s.c.), the “character at post-synaptic 5-HT1A receptors” value is “behaves like a post-synaptic 5-HT1A serotoninergic antagonist”. In addition, the ED50 in assay [2] (sc, read-out: ID50 (reversal of the effects of 8-OH-DPAT, hypothermia)) is 1.3 mg/kg; in assay [5] (intravenous, rat dorsal raphe, read-out: ID50 (decrease of discharge frequency)) it was 0.00059 mg/kg. For the same compound, the results for the Ki in assay [3] and in assay [4] were 932 nM and 1.73 nM, respectively. In addition, the “discharge frequency, percentage in relation to the basal activity (100%)” value is recorded as 73.84% in assay [5] (0.25 μg/kg i.v., n = 3, mean ± standard error of the mean); 52.23% in assay [5] (0.5 μg/kg i.v., n = 3, mean ± standard error of the mean); 36.16% in assay [5] (1 μg/kg i.v., n = 3, mean ± standard error of the mean). Besides, the “character at pre-synaptic 5-HT1A receptors” value in assay [5] (pre-synaptic, rat, i.v.) is given as “behaves like a 5-HT1A serotoninergic agonist at the pre-synaptic level”. In addition, in assay [5] (reversal by WAY 100,635 31 μg/kg after cumulative Example 6 doses, n = 3, mean ± standard error of the mean), the “discharge frequency, percentage in relation to the basal activity (100%), after WAY 100,635” value was 140.48%.
`CCCN(CCC)C1CCc2cccc(O)c2C1` (stereo not drawn) [Example 8-OH-DPAT]: the “effect on body temperature” value in assay [6] was “brings about a decrease in body temperature in a dose-dependent manner”.
